# Patent US20070105162A1, “Monovalent avidin and streptavidin compositions” (Massachusetts Institute of Technology, priority 2005, published 2007)
# Experiments:
# [1] = Electrospray ionization mass spectrometry: biotin molecules bound per streptavidin tetramer; type: binding; settings: for # biotins (bound to each tetramer): from mass change upon addition of biotin, 30 μM protein, 200 μM biotin; for biotin binding per tetramer by mass spectrometry (in words): spectra with or without biotin
# Method: Biospin columns (Bio-Rad) were equilibrated by spinning 5 times in 500 μL of 15 mM ammonium acetate pH 7.8 at 1000 g for 2 min. Then 30-50 μL of 30 μM protein in PBS was buffer-exchanged into 15 mM ammonium acetate pH 7.8 using the pre-equilibrated Biospin columns by spinning for 20 s at 1000 g. To ensure that PBS was completely removed, the flow-through was again buffer-exchanged with a second pre-equilibrated column for 20 s. This procedure also removed free biotin when the starting 30 μM streptavidin forms were incubated with 200 μM biotin. Less than 2 min before introducing into the mass spectrometer, the buffer-exchanged samples were diluted with a solution of 1:1 15 mM ammonium acetate pH 7.8 and 78% acetonitrile, 0.01% trifluoroacetic acid.
# An Advion nanospray robot (Advion BioSystems, Ithica, N.Y.) with a back-pressure of 0.45 Psi introduced the samples into the mass spectrometer, an 8.5 Tesla custom-built Electrospray Ionisation-Fourier Transform Mass Spectrometer. To visualize the non-covalent tetramers and non-covalent biotin binding in the high m/z range, the following settings were used: Chirp rate=750 Hz, Amplitude=0.5 V p-p, Tube lens=200 V, Capillary heater 2 V, Quad filter=−20 V, Skimmer=0 V, Capillary offset=34 V, X-fer=−110 V, Leak gas=4.2×10^−5 Torr. The capillary heater was kept low and the Quad filter and Skimmer were kept either high or off to prevent subunit dissociation. The transfer was set to this low value of −110 V in order to visualize the high m/z region.
# The masses were calculated manually by first determining the charge state. The final mass was determined by multiplying the observed m/z by the charge and subtracting the mass corresponding to the addition of protons to give that charge. For example, for the 15+charge state of D4 an m/z of 3534.159 was obtained. (15×3534.159)-(15×1.00727) gave a mass for this ion of 52,997 Da. This calculation was repeated for each charge state and the mean and standard deviation reported. The spectra were calibrated with tetrameric streptavidin, after its monomer mass was determined under denaturing conditions (Mr=13,271.4 Da). Average masses were predicted from the DNA sequence, using the ExPASy PeptideMass Calculator (ca.expasy.org/tools/peptide-mass.html) and assuming removal of the N-terminal formyl-Methionine.
# The different tetramers were purified using a Ni-nitrilotriacetic acid (NTA) column, eluting according to the number of His6-tags with increasing concentrations of imidazole. […] The tetramer composition was further confirmed by boiling the samples before loading on SDS-PAGE, to determine the ratio of A to D subunits (FIG. 1D), and by electrospray ionization mass spectrometry. In Table 1 (Schwartz, B. L. et al., J. of the Amer. Soc. for Mass Spec. 6: 459-465, 1995) the observed mass (±s.d.), determined by Electrospray Ionization-Mass Spectrometry, is compared to the mass predicted from the sequence. From the change (±s.e.m.) upon addition of biotin (mass 244.31), we determined how many biotin molecules were bound to each tetramer.
# Electrospray ionization mass spectrometry was used to characterize the number of biotin molecules bound per tetramer. Spectra of the different streptavidin tetramers with or without biotin were acquired. […] The other chimeric tetramers bound one biotin per A subunit.
# [2] = system: biotinylated AP-CFP-TM on HeLa cells; test: Staining of biotinylated AP-CFP-TM on HeLa with Alexa Fluor 568-conjugated avidins; type: cell-based; settings: avidin, Alexa Fluor 568 conjugate
# Method: Enzymatic biotinylation and imaging of HeLa transfectants are performed as previously described (Howarth, M. et al., Proc. Natl. Acad. Sci. USA 102: 7583-7588, 2005), except instead of 10 μM biotin and 1 mM ATP, we add 10 μM biotin-AMP (synthesized according to Coleman and Huang; Coleman, T. M. and Huang, F. Chem. Biol. 9: 1227-1236, 2002) to give equivalent biotinylation but minimizing the risk of purinoreceptor activation by ATP (Rathbone, M. P. et al., Prog. Neurobiol. 59: 663-690, 1999). […] Biotinylation of neurons is performed at day in vitro (DIV) 8 in Hanks' Balanced Salt Solution (HBSS) (Invitrogen) with 0.2 μM biotin ligase and 10 μM biotin-AMP for 5 min at 37° C. […] Neurons are washed with NeuroBasal media (Invitrogen) supplemented with B-27 (Invitrogen), 50 U/mL penicillin, 50 μg/mL streptomycin, and 0.2 mM L-glutamine and chased in the same medium for 0 or 2 hr at 37° C. Cells are then fixed in −20° C. methanol. There was no signal from wild-type avidin labeling if neurons were instead transfected with Ala-neuroligin-1 containing a point mutation in AP, confirming the specificity of labeling. […]
# Images of HeLa cells are collected on a Zeiss Axiovert 200M inverted epifluorescence microscope using a 40× oil-immersion lens and a MicroMAX CCD camera (Roper Scientific; Tucson, Ariz.). CFP (420DF20 excitation, 450DRLP dichroic, 475DF40 emission) and Alexa568 (560DF20 excitation, 585DRLP dichroic, 605DF30 emission) images are collected and analyzed using OpenLab software (Improvision; Lexington, Mass.). Fluorescence images are background-corrected. […] Images are scaled to 16 bits and analyzed in Northern Eclipse (Empix Imaging; Ontario, Canada) with user-written software. […] Results are then calculated in terms of clusters per micrometer of dendrite. For assessment of pre-synaptic terminals, clusters are determined as before and average grey levels of clusters are compared between transfected dendrites and untransfected dendrites within the same field of view. […] “n” represents the number of transfected neurons for which clusters were measured. […]
Substance,# biotins (bound to each tetramer) [1],biotin binding per tetramer by mass spectrometry (in words) [1],Alexa staining of biotinylated AP-CFP-TM [2]
"D4: Streptavidin tetramer with 4 dead subunits (D: N23A, S27D, S45A, SEQ ID NO:3) [Tetramer D4]",0,No biotin binding,no detectable staining
A1D3: Monovalent streptavidin tetramer: one His6-tagged wild-type (A) subunit and three dead (D) subunits [Tetramer A1D3],1,single biotin,detected equally well
